This is an account of results in patent publication US9073907B2, “Thiazoles derivatives and their use as positive allosteric modulators of metabotropic glutamate receptors” (Addex Pharma S.A., priority 2009, dated 2015).

Series [1] addresses T1, recombinant human mGluR4a receptors (Homo sapiens, UniProt Q14833).
T1 construct: expressed in transfected cells
The experiment in a line: mGluR4 assay on HEK-expressing human mGluR4: fluorescent cell based Ca2+ mobilization assay (FLIPR, Fluo-4). As to conditions: enhancement of EC25 glutamate response in HEK-293 cells expressing hmGluR4; mean of at least three independent experiments performed in duplicate; read-out: Ca^2+ Flux (mean EC50). An excerpt:
mGluR4 Assay on HEK-Expressing Human mGluR4 The compounds of the present invention are positive allosteric modulators of mGluR4 receptor. Their activity was examined on recombinant human mGluR4a receptors by detecting changes in intracellular Ca^2+ concentration, using the fluorescent Ca^2+-sensitive dye Fluo-4-(AM) and a Fluorometric Imaging Plate Reader (FLIPR, Molecular Devices, Sunnyvale, Calif.). The cDNA encoding the human metabotropic glutamate receptor (hmGluR4), (accession number NM_000841.1, NCBI Nucleotide database browser), was subcloned into an expression vector containing also the hygromycin resistance gene. In parallel, the cDNA encoding a G protein allowing redirection of the activation signal to intracellular calcium flux was subcloned into a different expression vector containing also the puromycin resistance gene. Transfection of both these vectors into HEK293 cells with PolyFect reagent (Qiagen) according to supplier's protocol, and hygromycin and puromycin treatment allowed selection of antibiotic resistant cells which had integrated stably one or more copies of the plasmids. Positive cellular clones expressing hmGluR4 were identified in a functional assay measuring changes in calcium fluxes in response to glutamate or selective known mGluR4 orthosteric agonists and antagonists. HEK-293 cells expressing hmGluR4 were maintained in media containing DMEM, dialyzed Fetal Calf Serum (10%), Glutamax™ (2 mM), Penicillin (100 units/mL), Streptomycin (100 μg/mL), Geneticin (100 μg/mL) and Hygromycin-B (40 μg/mL) and puromycin (1 μg/mL) at 37° C./5% CO2. Human mGluR4 HEK-293 cells were plated out 24 hours prior to FLIPR^384 assay in black-walled, clear-bottomed, poly-L-ornithine-coated 384-well plates at a density of 25,000 cells/well in a glutamine/glutamate free DMEM medium containing foetal bovine serum (10%), penicillin (100 units/mL) and streptomycin (100 μg/mL) at 37° C./5% CO2. On the day of the assay, the medium was aspirated and the cells were loaded with a 3 μM solution of Fluo4-AM (LuBioScience, Lucerne, Switzerland) in 0.03% pluronic acid. After 1 hour at 37° C./5% CO2, the non incorporated dye was removed by washing cell plate with the assay buffer and the cells were left in the dark at room temperature for […] before testing. All assays were performed in a pH 7.4 buffered-solution containing 20 mM HEPES, 143 mM NaCl, 6 mM KCl, 1 mM MgSO4, 1 mM CaCl2, 0.125 mM sulfapyrazone and 0.1% glucose. After 10 s of basal fluorescence recording, various concentrations of the compounds of the invention were added to the cells. Changes in fluorescence levels were first monitored for 180 s in order to detect any agonist activity of the compounds. Then the cells were stimulated by an EC25 glutamate concentration for an additional 110 s in order to measure enhancing activities of the compounds of the invention. EC25 glutamate concentration is the concentration giving 25% of the maximal glutamate response. The concentration-response curves of representative compounds of the present invention were generated using the Prism GraphPad software (Graph Pad Inc, San Diego, USA). The curves were fitted to a four-parameter logistic equation: (Y=Bottom+(Top−Bottom)/(1+10^((Log EC50−X)*Hill Slope) allowing the determination of EC50 values. The Table 3 below represents the mean EC50 obtained from at least three independent experiments of selected molecules performed in duplicate.
(In general: A change in cytosolic calcium serves as a functional read-out for many receptors and channels.)

Values joined by “and” are separate entries in the source; they are usually repeats but may differ in a detail not shown here. Equal entries are not always repeated.

T1 sequence (Q14833 33-912): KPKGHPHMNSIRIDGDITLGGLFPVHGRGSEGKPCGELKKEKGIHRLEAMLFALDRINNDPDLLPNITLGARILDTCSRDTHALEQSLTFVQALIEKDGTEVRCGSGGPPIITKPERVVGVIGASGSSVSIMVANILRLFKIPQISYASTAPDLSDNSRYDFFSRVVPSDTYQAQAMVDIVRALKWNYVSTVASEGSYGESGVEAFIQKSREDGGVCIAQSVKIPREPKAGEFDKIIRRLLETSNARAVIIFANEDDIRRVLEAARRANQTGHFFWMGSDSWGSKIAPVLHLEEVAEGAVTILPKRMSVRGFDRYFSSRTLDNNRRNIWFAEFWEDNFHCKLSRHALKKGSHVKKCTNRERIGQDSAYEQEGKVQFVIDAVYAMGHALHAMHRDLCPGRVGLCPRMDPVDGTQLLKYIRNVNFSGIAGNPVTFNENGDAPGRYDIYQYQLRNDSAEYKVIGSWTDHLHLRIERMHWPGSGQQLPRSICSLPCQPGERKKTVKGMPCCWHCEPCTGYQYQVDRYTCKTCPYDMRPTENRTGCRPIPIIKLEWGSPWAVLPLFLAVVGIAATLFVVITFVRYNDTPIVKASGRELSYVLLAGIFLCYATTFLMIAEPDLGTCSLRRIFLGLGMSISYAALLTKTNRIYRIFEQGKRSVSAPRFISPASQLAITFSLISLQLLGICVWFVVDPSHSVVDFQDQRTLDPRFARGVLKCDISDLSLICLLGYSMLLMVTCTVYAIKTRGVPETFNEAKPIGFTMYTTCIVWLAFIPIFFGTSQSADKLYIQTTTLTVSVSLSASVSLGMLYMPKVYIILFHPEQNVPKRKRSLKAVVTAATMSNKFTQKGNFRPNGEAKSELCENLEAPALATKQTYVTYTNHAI

For `Cc1sc(Nc2cccc(C#N)n2)nc1-c1cn[nH]c1` [Compound 1-1, 6-(5-Methyl-4-(1H-pyrazol-4-yl)thiazol-2-ylamino)picolinonitrile], the melting point was 331 °C. Besides, the half-maximal effective concentration (EC50) in series [1] fell in the range of 100 to 1000 nM.

As for `c1ccc(Nc2nc(-c3c[nH]nc3CC3CC3)cs2)nc1` [Compound 1-6, 4-(3-(Cyclopropylmethyl)-1H-pyrazol-4-yl)-N-(pyridin-2-yl)thiazol-2-amine], the concentration for a half-maximal effect (EC50) in series [1] was in the range of 100 to 1000 nM.

`c1ccc(Nc2nc(-c3cn[nH]c3)c(N3CCCC3)s2)nc1` [Compound 1-8, 4-(1H-Pyrazol-4-yl)-N-(pyridin-2-yl)-5-(pyrrolidin-1-yl)thiazol-2-amine]: the melting point worked out at 209 °C. Further, in series [1], the EC50 lay in the range of 1000 to 10000 nM.

Take `Fc1cccc(Nc2nc(-c3cn[nH]c3)c(F)s2)n1` [Compound 1-10, 5-Fluoro-N-(6-fluoropyridin-2-yl)-4-(1H-pyrazol-4-yl)thiazol-2-amine]: the melting point was found to be 237 °C. Moreover, the concentration for a half-maximal effect (EC50) in series [1] was less than 100 nM.

Regarding `Cc1sc(Nc2ncccn2)nc1-c1cn[nH]c1` [Compound 1-16, 5-Methyl-4-(1H-pyrazol-4-yl)-N-(pyrimidin-2-yl)thiazol-2-amine], the melting point lay in the range of 298 to 300 °C. Also, in series [1], the EC50 was less than 100 nM.

The compound `Clc1[nH]ncc1-c1csc(Nc2ccccn2)n1` [Compound 1-17, 4-(5-Chloro-1H-pyrazol-4-yl)-N-(pyridin-2-yl)thiazol-2-amine] came in with a melting point of 299 to 304 °C. Also, the EC50 in series [1] is less than 100 nM.

Take `COCc1sc(Nc2ccccn2)nc1-c1cn[nH]c1` [Compound 1-18, 5-(Methoxymethyl)-4-(1H-pyrazol-4-yl)-N-(pyridin-2-yl)thiazol-2-amine]: in series [1], the EC50 is 100 to 1000 nM.

`c1ccc(Nc2nc(-c3cn[nH]c3)c(CN3CCOCC3)s2)nc1` [Compound 1-21, 5-(Morpholinomethyl)-4-(1H-pyrazol-4-yl)-N-(pyridin-2-yl)thiazol-2-amine]: the EC50 in series [1] is 1000 to 10000 nM.

Take `N#Cc1[nH]ncc1-c1csc(Nc2ccccn2)n1` [Compound 1-26, 4-(2-(Pyridin-2-ylamino)thiazol-4-yl)-1H-pyrazole-5-carbonitrile]: in series [1], the 50% effective concentration (EC50) was in the range of 100 to 1000 nM.

Take `Cn1ccc(Nc2nc(-c3cn[nH]c3)cs2)n1` [Compound 1-27, N-(1-Methyl-1H-pyrazol-3-yl)-4-(1H-pyrazol-4-yl)thiazol-2-amine]: the melting point was in the range of 209 to 211 °C. In series [1], the concentration giving a half-maximal response (EC50) is 1000 to 10000 nM.

In the case of `CC(=O)NCn1cc(-c2nc(Nc3ccccn3)sc2C)cn1` [Compound 1-61, N-((4-(5-Methyl-2-(pyridin-2-ylamino)thiazol-4-yl)-1H-pyrazol-1-yl)methyl)acetamide], the melting point was 175 °C and 180 °C. In series [1], the EC50 was in the range of 1000 to 10000 nM.

For the compound `CN(C)c1[nH]ncc1-c1csc(Nc2ncccn2)n1` [Compound 1-65, 4-(5-(Dimethylamino)-1H-pyrazol-4-yl)-N-(pyrimidin-2-yl)thiazol-2-amine], the 50% effective concentration (EC50) in series [1] fell in the range of 1000 to 10000 nM.

A word on the EC50: it is the midpoint of the concentration-response curve. The melting point is the temperature, or range, at which the solid turns liquid.
